{"source": "patent US20240108634A1", "about": "“COMPOSITIONS AND METHODS FOR INHIBITING YAP” (The United States Government as represented by the …, priority 2021, published 2024)", "system": "YAP localization", "assay": "YAP cytoplasmic/nuclear localization (cell fractionation and immunofluorescence)", "format": "cell-based, human", "conditions": "50 nM, 6 h", "protocol": "Levels of total YAP were determined via ELISA. […] Immunoprecipitates were immunoblotted for the indicated proteins. […] Cells were treated with the indicated concentrations of inhibitor for 18 h and mRNA extracted for real time RT-PCR analyses. Measurements were performed in quadruplicate and means and+S.D. are shown. […] […] Cytoplasmic versus nuclear material was subsequently immunoblotted for the indicated proteins. […] Values in top right corner of panels correspond to the percentage of nuclear localized YAP. Cells were grown on coverslips and treated with NSC682769. Cells were permeabilized and stained using primary antibody to YAP1 and FITC-conjugated secondary. Nuclei were stained with DAPI. Scale bar, 20 μm.\nSurface plasmon resonance (SPR), ELISA, YAP-TEAD reporter activity, cellular fractionation, and immunofluorescence analyses. SPR experiments were carried out on a Nicoya OpenSPR™ instrument using immobilized YAP on a carboxyl-coated sensor. Binding was observed as the change in response units (RU) as analyte was injected at a flow rate of 10 μl/min at 25° C. TraceDrawer™ was used for kinetic analyses. The PathScan® total-YAP ELISA kit was obtained from Cell Signaling and used according to the manufacturer's instructions. YAP-TEAD reporter activity was determined as previously described (Kim N G, Gumbiner B M (2015) J Cell Biol 210: 503-515). HOP-flash contains multiple copies of wild-type TEAD-binding sites with a minimal promoter upstream of a luciferase reporter gene. Luciferase activity was measured via a luciferase assay system (Promega). Nuclear-cytoplasmic fractionation was performed according to Dignam et al. (Dignam J D, et al. (1983) Nucleic Acids Res 11: 1475-1489). Briefly, the buffers used were kept on ice and centrifugations were done at 4° C. with soft braking. After a single wash with PBS, cells were scraped with PBS (containing 1 mM DTT and 1× protease inhibitor) and harvested by centrifugation at 1000×g for 15 min. […] Cell lysis was monitored by trypan blue staining. […]", "data": [{"compound": "COc1ccc(-c2cc(-c3ccccc3)nc3c2CC(=O)Nc2ccccc2-3)cc1OC", "note": "[NSC682769]", "values": [{"measurement": "Relative amount of nuclear YAP (immunofluorescence)", "setting": "GBM39 cells, untreated 53%", "result": 19, "unit": "%"}, {"measurement": "Relative amount of nuclear YAP (immunofluorescence)", "setting": "LN229 cells, untreated 67%", "result": 26, "unit": "%"}, {"measurement": "Nuclear versus cytoplasmic YAP by cell fractionation", "setting": "LN229 or GBM39 cells", "result": "reduction of nuclear YAP and a concomitant accumulation of cytoplasmic YAP"}]}]}
